# Test results from patent publication US9351966B2, “Composition comprising a combination of omeprazole and lansoprazole, and a buffering agent, and methods of using same” (The Curators of the University of Missouri, priority 2008, dated 2016).
# Key:
# [1] = cited from earlier work; for t1/2: Table 1, daily dose 15-160 mg as listed; for half-life of elimination, normal, mean: drug given alone; for mean plasma elimination half-life: healthy adults, clinical studies
# [2] = Cross-over study, blood draws: AUC and half-life of PPI; format: in vivo, human; conditions: for prolongation factor of elimination half-life: omeprazole and lansoprazole administered together versus normal
# Description: (§1) A study was performed as a cross-over design, with washout between doses. The subject received the test article after placing a Bravo pH probe in the stomach and verifying its placement with pH readings of less than 2. After a baseline evaluation, to ensure that the pH probe is in the correct place for reading gastric acid in the stomach, the subject has an intravenous access established and a baseline blood draw was taken to provide evidence of a lack of PPI in the blood at baseline. The subject received the one of three different formulations, and the time of administration was noted. Blood draws were taken at intervals to characterize the absorption, distribution and elimination phases of the test article. […] Continuous gastric pH recording was made utilizing the Bravo pH probe and radiofrequency receiver. Gastric pH values were recorded every 10 seconds.
# as §1, with “eighteen” for “three”
# [3] = tested on: 2C19 and 3A4 isoforms of the Cytochrome P450 enzyme; conditions: liver; cited from earlier work
# Barrett's esophagus = conditions: extended treatment (years), twice per day or more, with or without surgery; cited from earlier work
# intragastric acidity = conditions: after a single dose of PPI (Day 1); 20 mg delayed release; cited from earlier work
# [4] = clinical trials; Zegerid (omeprazole) and Prevacid (lansoprazole) package inserts; cited from earlier work
# [5] = rats; drug or its metabolites; cited from earlier work
smiles,measurement,setting,value
"COc1ccc2[nH]c([S+]([O-])Cc3ncc(C)c(OC)c3C)nc2n1 (stereo not shown) [Tentaoprazole, 5-methoxy-2-[[(4-methoxy-3,5-dimethyl-2-pyridyl)methyl]sulfinyl]imidazo[4,5-b]pyridine]",t1/2,[1],6.8 to 8 h
COCCCOc1ccnc(C[S+]([O-])c2nc3ccccc3[nH]2)c1C (stereo not shown) [Rabeprazole],t1/2,[1],0.8 to 1 h
COc1ccnc(C[S+]([O-])c2nc3ccc(OC(F)F)cc3[nH]2)c1OC (stereo not shown) [Pantoprazole],t1/2,[1],1.2 to 1.5 h
"COc1ccc2[nH]c([S+]([O-])Cc3ncc(C)c(OC)c3C)nc2c1 (stereo not shown) [Omeprazole, 5-methoxy-2-[[(4-methoxy-3,5-dimethyl-2-pyridinyl)methyl]sulfinyl]-1H benzimidazole]",prolongation factor of elimination half-life,[2],200%
same,elimination half-life when administered together,"[2]; omeprazole and lansoprazole together, e.g. 80 mg lansoprazole+80 mg omeprazole+1680 mg sodium bicarbonate",1.9 h
same,metabolism by Cytochrome P450 isoforms,[3],mostly by the 2C19 isoform
same,patients with reversal of Barrett's esophagus,Barrett's esophagus,3 of 123
same,IGA-24Day 1,intragastric acidity,640 mmol·h/L
same,Adverse effect: Abdominal pain,[4],5.2 % of patients
same,Adverse effect: Asthenia,[4],1.3 % of patients
same,Adverse effect: Constipation,[4],1.5 % of patients
same,Adverse effect: Diarrhea,[4],3.7 % of patients
same,Adverse effect: Headache,[4],2.9 % of patients
same,t1/2,[1],0.9 to 1.5 h
same,"half-life of elimination, normal, mean",[1],approximately 0.95 hrs
same,mean plasma elimination half-life,[1],less than 1 hours
Cc1c(OCC(F)(F)F)ccnc1C[S@@+]([O-])c1nc2ccccc2[nH]1 [Dexlansoprazole],t1/2,[1],1 to 1.6 h
COc1ccc2nc([S@@+]([O-])Cc3ncc(C)c(OC)c3C)[nH]c2c1 [Esomerprazole],t1/2,[1],1.1 to 1.6 h
Cc1c(OCC(F)(F)F)ccnc1C[S+]([O-])c1nc2ccccc2[nH]1 (stereo not shown) [Lansoprazole],half-life,"[2]; human, blood, oral, omeprazole and lansoprazole together, e.g. 80 mg lansoprazole+80 mg omeprazole+1680 mg sodium bicarbonate, read-out: elimination half-life when administered together (converted)",3.7 h
same,prolongation factor of elimination half-life,[2],300%
same,metabolism by Cytochrome P450 isoforms,[3],approximately equal amounts by both the 2C19 and 3A4 isoforms
same,patients with reversal of Barrett's esophagus,Barrett's esophagus,3 of 123
same,Adverse effect: Abdominal pain,[4],2.1 % of patients
same,Adverse effect: Asthenia,[4],<1 % of patients
same,Adverse effect: Constipation,[4],1.0 % of patients
same,Adverse effect: Diarrhea,[4],3.8 % of patients
same,Adverse effect: Headache,[4],<1 % of patients
same,t1/2,[1],1 to 1.5 h
same,"half-life of elimination, normal, mean",[1],approximately 1.2 hrs
same,mean plasma elimination half-life,[1],about 1.5 hours
same,excretion in breast milk,[5],excreted in breast milk
